Measured values taken from patent US20240000767A1, “COMBINATION OF AN ALPHA2-ADRENOCEPTOR SUBTYPE C (ALPHA-2C) ANTAGONIST WITH A TASK1/3 CHANNEL BLOCKER FOR THE TREATMENT OF SLEEP APNEA” (Bayer Aktiengesellschaft, priority 2020, published 2024).

Molecular target: human ADRA2C receptor (Homo sapiens (Human), UniProt P18825)
Experiment: In vitro activity assay to determine the inhibition of recombinant ADRA2C (CHO-K1 cells, aequorin bioluminescence)
Assay type: cell-based
Details: inhibition of noradrenaline-induced bioluminescence signal; some mean values from multiple determinations; read-out: ARα2C IC50
Description: B-2. In Vitro Activity Assay to Determine the Inhibition of Recombinant ADRA2C
The human ADRA2C receptor belongs to the G protein(guanine-dependent protein)-coupled receptors, the main function of which is the transduction of signals into the interior of the cell.
The investigations of the inhibition of the recombinant human ADRA2C receptors were carried out with stabily transfected CHO-K1 cells coexpressing the Gaq protein and the calcium-sensitive photoprotein aequorin. In this recombinant system, binding of the agonists noradrenaline to the ADRA2C receptor leads, after activation of a signal cascade, to calcium release from intracellular stores, which is detected by the intracellular calcium sensor aequorin as a bioluminescent signal. The method is described in detail in the reference below. [Wunder F., Kalthof B., Muller T., Hueser J. Functional Cell-Based Assays in Microliter Volumes for Ultra-High Throughput Screening. Combinatorial Chemistry & High Throughput Screening, Volume 11, Number 7, 2008, pp. 495-504(10). doi.org/10.2174/138620708785204054]
The activity of the test substances was determined via their ability to inhibit the agonist-induced increase of the bioluminescence signal. The concentration which can block half of this signal increase is referred to as IC50. The IC50 value is calculated using the 4 parameter logistic function (Hill function):
Top=upper threshold, Bottom=lower threshold, Slope=slope, IC50=turning point

Sequence of human ADRA2C receptor (P18825 whole entry): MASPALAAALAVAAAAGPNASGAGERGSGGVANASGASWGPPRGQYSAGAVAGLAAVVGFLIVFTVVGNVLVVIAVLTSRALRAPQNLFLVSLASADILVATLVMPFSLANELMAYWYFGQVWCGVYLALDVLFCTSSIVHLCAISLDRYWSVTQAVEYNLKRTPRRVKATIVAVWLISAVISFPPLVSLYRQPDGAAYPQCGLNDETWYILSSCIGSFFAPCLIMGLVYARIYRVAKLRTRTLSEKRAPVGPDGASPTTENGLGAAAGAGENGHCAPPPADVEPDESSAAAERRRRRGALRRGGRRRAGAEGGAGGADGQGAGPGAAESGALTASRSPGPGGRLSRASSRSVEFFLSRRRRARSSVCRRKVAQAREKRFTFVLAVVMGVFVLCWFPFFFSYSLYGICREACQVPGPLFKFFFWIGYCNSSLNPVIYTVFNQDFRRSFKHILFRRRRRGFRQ

Structure (SMILES) | IC50
CCCC1CCCN(C2CCN(c3ncc(C(=O)NCc4ncc(F)cc4F)s3)CC2)C1 (racemic) [Example 121, rac-N-[(3,5-Difluoropyridin-2-yl)methyl]-2-(3-propyl[1,4′-bipiperidin]-1′-yl)-1,3-thiazole-5-carboxamide] | 0.65 nM
Cc1cccc(CNC(=O)c2cnc(N3CCC(N4CCC[C@@H](C)C4)CC3)s2)c1 [Example 36, N-(3-methylbenzyl)-2-[(3R)-3-methyl[1,4′-bipiperidin]-1′-yl]-1,3-thiazole-5-carboxamide] | 190 nM
C[C@@H]1CCCN(C2CCN(c3ncc(C(=O)Nc4ccccc4C4CC4)s3)CC2)C1 [Example 93] | 630 nM
C[C@@H]1CCCN(C2CCN(c3ncc(C(=O)N(C)Cc4ncc(F)cc4F)s3)CC2)C1 [Example 150] | 200 nM
C[C@@H]1CCCN(C2CCN(c3ncc(C(=O)NCc4ccccc4)s3)CC2)C1 [Example 73, N-Benzyl-2-[(3R)-3-methyl[1,4′-bipiperidin]-1′-yl]-1,3-thiazole-5-carboxamide] | 219 nM
C[C@@H]1CCCN(C2CCCN(c3ncc(C(=O)NCc4ncc(F)cc4F)s3)CC2)C1 (stereo partly drawn) [Example 71, N-[(3,5-Difluoropyridin-2-yl)methyl]-2-{4-[(3R)-3-methylpiperidin-1-yl]azepan-1-yl}-1,3-thiazole-5-carboxamide] | 100 nM
COCC1CCCN(C2CCN(c3ncc(C(=O)NCc4ncc(F)cc4F)s3)CC2)C1 (single isomer, unassigned) [Example 99, ent-N-[(3,5-Difluoropyridin-2-yl)methyl]-2-[3-(methoxymethyl) [1,4′-bipiperidin]-1′-yl]-1,3-thiazole-5-carboxamide] | 590 nM
C[C@@H]1CCCN(C2CCN(c3ncc(C(=O)NCc4ncc(Cl)s4)s3)CC2)C1 [Example 56, N-[(5-Chloro-1,3-thiazol-2-yl)methyl]-2-[(3R)-3-methyl[1,4′-bipiperidin]-1′-yl]-1,3-thiazole-5-carboxamide] | 240 nM
COc1cccc(CNC(=O)c2cnc(N3CCC(N4CCC[C@@H](C)C4)CC3)s2)c1 [Example 80] | 90.5 nM
C[C@@H]1CCCN(C2CCN(c3ncc(C(=O)NCc4ncc(F)cc4F)s3)CC2F)C1 (mixture of isomers) [Example 50, diamix-N-[(3,5-Difluoropyridin-2-yl)methyl]-2-[(3R)-3′-fluoro-3-methyl[1,4′-bipiperidin]-1′-yl]-1,3-thiazole-5-carboxamide] | 73.5 nM
O=C(NCc1ncc(F)cc1F)c1cnc(N2CCC(N3CCCC4(C3)CC4(F)F)CC2)s1 (racemic) [Example 65, rac-2-[4-(1,1-Difluoro-5-azaspiro[2.5]octan-5-yl)piperidin-1-yl]-N-[(3,5-difluoropyridin-2-yl)methyl]-1,3-thiazole-5-carboxamide] | 4.5 nM
CC(F)CCOCC1CCCN(C2CCN(c3ncc(C(=O)NCc4ncc(F)cc4F)s3)CC2)C1 (stereo not shown) [Example 74, diamix-N-[(3,5-Difluoropyridin-2-yl)methyl]-2-[3-({[3-fluorobutyl]oxy}methyl)[1,4′-bipiperidin]-1′-yl]-1,3-thiazole-5-carboxamide] | 285 nM
O=C(NCc1ncc(F)cc1F)c1cnc(N2CCC(N3CCC[C@H](C(F)F)C3)CC2)s1 [Example 38, 2-[(3S)-3-(Difluoromethyl)[1,4′-bipiperidin]-1′-yl]-N-[(3,5-difluoropyridin-2-yl)methyl]-1,3-thiazole-5-carboxamide] | 2340 nM
CC1CCCN(C2CCN(c3ncc(C(=O)NCc4ncc(F)cc4F)s3)CC2)CC1 (single isomer, unassigned) [Example 104, ent-N-[(3,5-Difluoropyridin-2-yl)methyl]-2-[4-(4-methylazepan-1-yl)piperidin-1-yl]-1,3-thiazole-5-carboxamide] | 10 nM
Cc1oc(N2CCC(N3CCC[C@@H](C)C3)CC2)nc1C(=O)NCc1ncc(F)cc1F [Example 14, N-[(3,5-difluoropyridin-2-yl)methyl]-5-methyl-2-[(3R)-3-methyl[1,4′-bipiperidin]-1′-yl]-1,3-oxazole-4-carboxamide] | 211 nM
C[C@@H]1CCCN(C2CCN(c3ncc(C(=O)NCc4cc(F)ccc4Cl)s3)CC2)C1 [Example 34, N-(2-chloro-5-fluorobenzyl)-2-[(3R)-3-methyl[1,4′-bipiperidin]-1′-yl]-1,3-thiazole-5-carboxamide] | 640 nM
Cc1ccccc1CNC(=O)c1cnc(N2CCC(N3CCC[C@@H](C)C3)CC2)s1 [Example 37, N-(2-methylbenzyl)-2-[(3R)-3-methyl[1,4′-bipiperidin]-1′-yl]-1,3-thiazole-5-carboxamide] | 200 nM

Structure (SMILES) | IC50
O=C(NCc1ncc(F)cc1F)c1cnc(N2CCC(N3CCCC4(C3)CC4(F)F)CC2)s1 (single isomer, unassigned; ent-2) [Example 132, ent-2-[4-(1,1-Difluoro-5-azaspiro[2.5]octan-5-yl)piperidin-1-yl]-N-[(3,5-difluoropyridin-2-yl)methyl]-1,3-thiazole-5-carboxamide (enantiomer 2)] | 0.71 nM
CC1CCCCN(C2CCN(c3ncc(C(=O)NCc4ncc(F)cc4F)s3)CC2)C1 (racemic) [Example 54, rac-N-[(3,5-Difluoropyridin-2-yl)methyl]-2-[4-(3-methylazepan-1-yl)piperidin-1-yl]-1,3-thiazole-5-carboxamide] | 230 nM
C[C@@H]1CCCN(C2CCN(c3ncc(C(=O)NCc4ncc(F)cc4F)s3)CC2F)C1 (single isomer, unassigned) [Example 51] | 150 nM
C[C@@H]1CCCN(C2CCN(c3nc(Cl)c(C(=O)NCc4ncc(F)cc4F)s3)CC2)C1 [Example 120, 4-Chloro-N-[(3,5-difluoropyridin-2-yl)methyl]-2-[(3R)-3-methyl[1,4′-bipiperidin]-1′-yl]-1,3-thiazole-5-carboxamide] | 41 nM
O=C(NCc1ncc(F)cc1F)c1cnc(N2CCC(N3CCCC(COCC4CC4)C3)CC2)s1 (racemic) [Example 69, rac-2-{3-[(Cyclopropylmethoxy)methyl][1,4′-bipiperidin]-1′-yl}-N-[(3,5-difluoropyridin-2-yl)methyl]-1,3-thiazole-5-carboxamide] | 5.5 nM
CC(C)C1CCCN(C2CCN(c3ncc(C(=O)NCc4ncc(F)cc4F)s3)CC2)C1 (racemic) [Example 103, rac-N-[(3,5-Difluoropyridin-2-yl)methyl]-2-(3-isopropyl[1,4′-bipiperidin]-1′-yl)-1,3-thiazole-5-carboxamide] | 0.83 nM
O=C(NCc1ncc(F)cc1F)c1cnc(N2CCC(N3CCCC(COCC4(C(F)(F)F)CC4)C3)CC2)s1 (racemic) [Example 62, rac-N-[(3,5-Difluoropyridin-2-yl)methyl]-2-[3-({[1-(trifluoromethyl)cyclopropyl]methoxy}methyl)[1,4′-bipiperidin]-1′-yl]-1,3-thiazole-5-carboxamide] | 130 nM
CC1CCCN(C2CCN(c3ncc(C(=O)NCc4ncc(F)cc4F)s3)CC2)CC1 (racemic) [Example 53, rac-N-[(3,5-Difluoropyridin-2-yl)methyl]-2-[4-(4-methylazepan-1-yl)piperidin-1-yl]-1,3-thiazole-5-carboxamide] | 110 nM
O=C(NCc1ncc(F)cc1F)c1cnc(N2CCC(N3CCCC4(CC4)C3)CC2)s1 [Example 64, 2-[4-(5-Azaspiro[2.5]octan-5-yl)piperidin-1-yl]-N-[(3,5-difluoropyridin-2-yl)methyl]-1,3-thiazole-5-carboxamide] | 1.4 nM
C[C@@H]1CCCN(C2CCN(c3ncc(C(=O)NCc4ccc(F)cc4)s3)CC2)C1 [Example 84] | 65 nM
C[C@@H]1CCCN(C2CCN(c3noc(C(=O)NCc4ncc(F)cc4F)n3)CC2)C1 [Example 49, N-[(3,5-Difluoropyridin-2-yl)methyl]-3-[(3R)-3-methyl[1,4′-bipiperidin]-1′-yl]-1,2,4-oxadiazole-5-carboxamide] | 56 nM
C[C@@H]1CCCN(C2CCN(c3ncc(C(=O)NCc4ccc(Cl)cn4)s3)CC2)C1 [Example 29, N-[(5-chloropyridin-2-yl)methyl]-2-[(3R)-3-methyl[1,4′-bipiperidin]-1′-yl]-1,3-thiazole-5-carboxamide] | 96 nM
COc1ccc2c(c1)CCN(C1CCN(c3ncc(C(=O)NCc4ncc(F)cc4F)s3)CC1)C2 [Example 145] | 1 nM
C[C@@H]1CCCN(C2CCN(c3ncc(C(=O)NCc4cc(Cl)ccc4F)s3)CC2)C1 [Example 21, N-(5-Chloro-2-fluorobenzyl)-2-[(3R)-3-methyl[1,4′-bipiperidin]-1′-yl]-1,3-thiazole-5-carboxamide] | 7.2 nM
C[C@@H]1CCCN(C2CCN(c3nc(C(F)(F)F)c(C(=O)NCc4ncc(F)cc4F)s3)CC2)C1 [Example 11, N-[(3,5-difluoropyridin-2-yl)methyl]-2-[(3R)-3-methyl[1,4′-bipiperidin]-1′-yl]-4-(trifluoromethyl)-1,3-thiazole-5-carboxamide] | 140 nM
O=C(NCc1ncc(F)cc1F)c1cnc(N2CCC(N3CCc4ccc(Cl)cc4C3)CC2)s1 [Example 139] | 0.65 nM
CCc1cc(NC(=O)c2cnc(N3CCC(N4CCC[C@@H](C)C4)CC3)s2)ccn1 [Example 98] | 1600 nM
